The text below walks through data of patent US20210085749A1, “Therapeutic and Neuroprotective Peptides” (Allegro Pharmaceuticals, LLC, priority 2017, published 2021).

One series has as its system ARPE-19 cells. The series is described as follows: In vitro protection of RPE cells against hydrogen peroxide, Trypan blue exclusion cell count. Format: cell-based. The following applies: 8 hours post exposure. The procedure: Hydrogen peroxide (H2O2), a physiological mediator of oxidative stress, is known to induce apoptosis in retinal pigment epithelial (RPE) cells.
ARPE-19 cells were incubated in DMEM/F12 medium supplemented with 10% fetal bovine serum (FBS) and 50 μg/ml streptomycin and 50 μg/ml of penicillin at 37° C. in an atmosphere of 5% CO2.To induce differentiation, ARP-19 cells were cultured in a Laminin coated transwells for 2 weeks in the same medium supplemented with 1% FBS and antibiotics. The RPE cells were then isolated and aliquots of about 150 μl-200 μl of cell suspension were dispensed into the petri dishes containing control medium. The cells were then incubated at 37 degrees C. for 24 hours before use.
Thereafter, the following four (4) separate neuronal cell dishes were prepared as shown below: • A) Control Retinal RPE cells; • B) Retinal RPE cells incubated with 1.0 mg/ml ALG-1001 (Luminate); • C) Retinal RPE cells incubated with 100 μM of Hydrogen Peroxide; and • D) Retinal RPE cells incubated with 1.0 mg/ml ALG-1001 (Luminate) for 24 hours before exposure to 100 μM of Hydrogen Peroxide.
(§1) Eight (8) hours post exposure, the cell numbers were measured using Trypan blue exclusion assay in a Neubaur Chamber.

A further series deals with retinal ganglion cells. Briefly: Ocular neuroprotection in vivo, rat model of elevated intraocular pressure (optic nerve ligation), ganglion cell counts. Also noted: species or system Wister rats. The procedure: Healthy Wister rats (n=8) ten (10) weeks of age were kept in a vivarium maintained at a constant temperature of 26° C., and a constant light-dark cycle (14 hours and 10 hours respectively) with food available ad libitum. The rats were randomly divided into a Luminate treatment group of five (5) animals (Group A) and a Basic Salt Solution (BSS-control) treatment group of three (3) animals (Group B).
The animals of Group A each received a single intravitreal injection of 1.28 mg/20 μL of Luminate in the right eye. The animals of Group B each received a single intravitreal injection of 20 μL of balanced salt solution (BSS). The left eyes of all animals in Groups A and B were not injected and were used as untreated controls. The intravitreal injections were administered 2 mm posterior to the limbus in the supronasal quadrant using a 30-gauge needle attached to a 1.0 cc syringe. Care was taken to avoid damage to the lens or retina.
Twenty-four (24) hours after administration of the injections the rats were anesthetized by intraperitoneal injection of 3.0 mL/kg of a mixture of ketamine Hydrochloride (2.5 mg/mL), diazepam (2.0 mg/mL) and atropine (0.1 mg/mL). The eyes were then subjected to peritoneal conjunctival detachment of the lateral rectus muscle to expose the optic nerve. The optic nerve was then ligated with silk suture for a period of 60 minutes during which the absence of blood flow in the retina of each ligated eye was verified by inspection using a Plano contact lens. The ligatures were removed after 60 minutes, and restoration of blood flow to the retina was verified in each previously-ligated eye using the Plano contact lens.
The eyes were then enucleated and fixed for histopathological analysis. Specimens of the retina and optic nerve from each eye were dehydrated and embedded in paraffin. Horizontal sections 4 microns thick were cut and stained with hematoxylin and eosin. Under light microscopy, ganglion cell counts were counted in axial sections of the retina of each eye from ora serrata through the optic nerve. Also, in each section, the number of ganglion cells per millimeter through the total length of the retina was calculated digitally, using a measuring slide calibrated for this purpose.
Measurement of the inner plexiform layer was performed by observing the slides at a magnification of 40× no more than 1 mm from the optic nerve.
The results were subjected to statistical analysis. The results for each group were expressed as mean±standard deviation and the statistical significance between the results of the groups was evaluated by 2 way ANOVA as well as the Mann-Whitney U test. Probabilities of <0.05 were deemed to be significant.

A further series concerns retinal Muller cells. Briefly: In vitro protection of retinal Muller cells against Kainic acid, Trypan blue exclusion cell count. Format: cell-based, CD1 mice. The following applies: 1.0 mg/ml for 24 hours before exposure to 500 μM Kainic acid (Plate D), 48 hours post exposure. As for the experimental part: CD1 mice were euthanized by decapitation, eyes were rapidly enucleated into DMEM complement with antibiotic solution and stored overnight at room temperature. Subsequently the intact globes were incubated in DMEM containing 0.1% trypsin and 70 U/ml collagenase at 37° C. for 60 minutes.
The incubated materials were placed in a petri dish containing DMEM supplemented with 10% fetal bovine serum, and the retinas were removed without the RPE cells into small aggregates and seeded into 35 mm culture dishes. Medium was unchanged for 6 days and then replenished every 3-4 days. The cultures were maintained at 37° C. in a […]/95% O2 in a humidified incubator.
When the cell outgrowth had attained semiconfluency, (80%) retinal aggregates were removed by pipetting the medium into the dish. This operation was repeated three (3) times until a purified flat cell population was obtained. After 24 hours, the cells were exposed to the experimental conditions.
Four (4) separate Muller cell dishes were prepared, as follows: A) Control Muller cells; B) Muller cells incubated with ALG-1001 (Luminate) 1.0 mg/ml; C) Muller cells incubated with 500 μM of Kainic acid and D) Muller cells incubated with Luminate 1.0 mg/ml for 24 hours before exposure to 500 μM of Kainic acid. Forty Eight (48) hours post exposure, the cell numbers were measured using Trypan blue exclusion assay in a Neubaur Chamber.

A further series deals with Retinal Neuronal cells. The series is described as follows: In vitro protection of retinal neuronal cells against Kainic acid, Trypan blue exclusion cell count. In kind it is cell-based, CD1 mice. The conditions noted are these: 8 hours post exposure. The procedure: CD1 mice were euthanized by decapitation, eyes were rapidly enucleated into DMEM complement with antibiotic solution and the retina were isolated from the pigment epithelium.
The isolated retina was incubated in Hank's medium containing 2.5 mg/ml papain and 0.1 mg/ml of cysteine for 15 minutes at 30° C. After rinsing the Hank's medium, supplemented with 1.9 mM of CaCl2), 0.6 mM of MgCl2 and 0.1 mg/ml of bovine serum albumin.
The retina was mechanically dissociated, about 150 μl-200 μl of cell suspension was dispensed into the petri dish containing control medium. Bipolar cells were identified under a microscope by the cells morphology. The cells were incubated for 6 hours before use.
Four (4) separate Neuronal cell dishes were prepared, as follows: A) Control Retinal Neuronal cells, B) Retinal Neuronal cells incubated with ALG-1001 (Luminate) 1.0 mg/ml, C) Retinal Neuronal cells incubated with […], D) Retinal Neuronal cells incubated with Luminate 1.0 mg/ml for 24 hours before exposure to 500 μM of Kainic acid.
as §1

The nature of series [1]: Human prospective open label study in Dry AMD, Best Corrected Visual Acuity. Format: in vivo. The following applies: individual Dry AMD patient; single intravitreal injection 1.0 mg/50 μL. The procedure: To determine if a single Luminate intravitreal injection of 1.0 mg/50 μL has any effect on improving Best Corrected Visual Acuity (BCVA) of Dry AMD subjects with moderate to moderately sever Dry AMD. This is a prospective interventional, open label, IRB approved human clinical proof of concept study conducted in 7 human subjects with moderate to moderately severe Dry AMD. Main inclusion criteria involved patients with Dry Macular Degeneration eyes with relatively intact photoreceptor and RPE layers in the central 1 mm of the macula by OCT. The baseline BCVA of the subjects was between 20/30 and 20/400 with no evidence of sub-retinal fluid or CNV and no history of Anti-VEGF treatment. All recruited patients underwent a baseline single intravitreal injection of Luminate 1.0 mg/50 μL and were monitored monthly, in addition central macular thickness, OCT, digital color photographs and pre and post treatment BCVA were obtained.

Another series concerns Wister rat retina. The series is described as follows: In vivo dose-related neurotoxic effects of intravitreal Kainic acid, retinal histopathology. Also noted: species or system Wister rats. The following applies: intravitreal 20 μl of 0.5, 5.0, 50.0 mM; 24 hours post treatment. The procedure:
The right eyes of 4 Wister rats were injected intravitreally with 20 μl of the four different solutions, as follows: A) BSS solution as control, B) 0.5 mM of Kainic acid, C) 5.0 mM of Kainic acid and D) 50.0 mM of Kainic acid.
The rats were sacrificed 24 hours post treatment and the eyes were prepared for Histopathology examination.

Values joined by “and” are separate entries in the source; they are usually repeats but may differ in a detail not shown here. Equal values may be shown once. “Also recorded” adds a separate entry of the source. Square brackets hold non-standard residues; d marks the D form. Peptide text beside a SMILES is read from it. Cya = N[CH](CS(=O)(=O)O)C(=O)O

On to `OO` [Hydrogen Peroxide, Hydrogen peroxide, reference compound], for which, in the series with ARPE-19 cells (100 μM Hydrogen Peroxide alone (Plate C)), the “RPE cell count, % of the control cell count” value is on record as 78%.
For the compound `CC(O)C(NC(=O)C(CS(=O)(=O)O)NC(=O)CNC(=O)C(CCCNC(=N)N)NC(=O)CN)C(=O)N1CCCC1C(=O)O` (centres unmarked) [Luminate, Glycinyl-Arginyl-Glycinyl-Cysteic-Threonyl-Proline] (H-GRG[Cya]TP-OH; configuration not given here), the “Difference between medians: Actual (CONTROLS vs. CASES)” value in the series with retinal ganglion cells (ganglion cells per field, BSS controls minus treated) is −9.000. Besides, the “Difference between medians: Hodges-Lehmann (CONTROLS vs. CASES)” value with retinal ganglion cells (ganglion cells per field, 95.05% CI −13.00 to −6.000) is on record as −10.00. Moreover, in the series with retinal ganglion cells (intravitreal administration, p<0.0001 vs BSS (ANOVA, Mann-Whitney)), the “neuroprotective effect in rat model of elevated IOP” value is “significant neuroprotective effects”. Besides, the “Median of column A (ganglion cells per field, CASES)” value in the series with retinal ganglion cells (n = 54 fields, Mann-Whitney vs BSS controls P<0.0001) is given as 18.00, n = 54. Moreover, the “SUM of ganglion cells over all fields” value with retinal ganglion cells (per treated eye (case), intravitreal 1.28 mg/20 μL 24 h before 60 min optic nerve ligation) was 234 and 165 and 259 and 218 and 175. The “RPE cell count, % of the control cell count” value in the series on ARPE-19 cells (1.0 mg/ml for 24 hours before exposure to 100 μM Hydrogen Peroxide (Plate D)) is listed as 90%. Moreover, the “Muller cell count compared with other plates” value in the series on retinal Muller cells is given as “higher Muller cell count than any of the other plates”. For the same compound, the “neuronal cell count, % of Control” value in the series on Retinal Neuronal cells (1.0 mg/ml for 24 hours before exposure to 500 μM Kainic acid (Plate D)) is recorded as 80%. Moreover, in series [1], the “BCVA 3 Months Post Treatment” value is 1.0 log Mar (2×) and 1.3 log Mar and 0.20 log Mar and 0.3 log Mar and 0.6 log Mar; the “BCVA 3 Months Post Treatment (Snellen)” value was 20/200 (2×) and 20/400 and 20/32 and 20/40 and 20/80; the “BCVA letters gained 3 Months Post Treatment vs baseline” value is “up to 20 letters; also recorded: Gained 15 letters; also recorded: Gained no letters; also recorded: Gained 10 letters; also recorded: Gained 20 letters”.
For the compound `C=C(C)[C@H]1CN[C@H](C(=O)O)[C@H]1CC(=O)O` [Kainic acid, reference compound], the “retinal degeneration by histopathology” value with Wister rat retina is given as “dose-related retinal neurotoxisity”. Further, the “neuronal cell count, % compared to Control” value in the series on Retinal Neuronal cells (100 μM Kainic acid only (Plate C)) is recorded as 58%.
